Measured values from patent US20090028795A1, “NOD1 as an Anti-Tumor Agent” (priority 2005, published 2009).
Starred links: 1 amine or outer side, 2 acyl side, 3 side chain; linkers in the order of their positions; H or OH if unused. Non-standard residues stand in square brackets, D forms with d. No end group written: not given here. mesoDAP = meso-diaminopimelic acid, O=C(O)[C@@H](CCC[C@H](N[*:1])C(=O)[*:2])N[*:3]

How the values were obtained:
MCF-7 Nod1 cells = assay: Propidium iodide exclusion cell death assay, MCF-7 cells over-expressing Nod1; assay type: cell-based, human; conditions: for effect on γTriDAP-induced cell death: caspase inhibitor 50 uM, 30 min before γTriDAP/CHX for 48 h; for effect on γTriDAP-induced apoptosis: inhibitor 100 uM, 30 min prior to γTriDAP/CHX for 48 h
Description: (§1) Cell viability assays. Propidium iodide exclusion assay: Cells were stimulated as indicated for 2 days. Subsequently, cells were harvested, washed twice in FACS buffer (PBS containing 1% FCS and 0.1% NaN3) and resuspended in propidium iodide (PI)-containing FACS buffer (4 ug/ml). The extent of cell death was analyzed with a FACSCalibur flow cytometer (Becton Dickinson, Mountain View, Calif.). DAPI staining: MCF-7 cells were plated in chamber slides, and stimulated for 2 days. Cells were washed with PBS and apoptotic nuclei were stained with 1 μg/ml DAPI (Sigma Chemical Co., St. Louis, Mo.). Cells were fixed in 4% paraformaldehyde and examined by fluorescence microscopy.
(§2) To further investigate the role of Nod1 in apoptosis, a variety of cell types were incubated with the Nod1 ligand, […] (γTriDAP), which specifically activates Nod1. The cell types tested included the parental MCF-7 cell line, the Nod1-deficient MCF-7C20 clone, and a cell line engineered to contain an additional human Nod1 allele (MCF-7Nod1) so that Nod1 was over-expressed. To determine whether the resistance of C20 cells to γTriDAP-induced apoptosis resulted from the absence of Nod1, human Nod1 was stably expressed in MCF-7 C20 cells to produce Nod1-sufficient C20 cells (C20/Nod1). As another control, the parental MCF-7 cell line was transfected with an empty retroviral vector to generate MCF-7 Blasto cells. Cells were treated with γTriDAP in the presence or absence of cycloheximide (CHX) and cell death was then determined by propidium iodide staining and flow cytometry.

[1] = test system: MCF-7 and MCF-7 C20 cells; assay: Sensitivity to apoptotic stimuli, parental MCF-7 versus MCF-7 C20 cells; assay type: cell-based, human; conditions: C20 compared with parental cells
Text: FIG. 1A-C illustrates Nod1 involvement in TNF-induced apoptosis. FIG. 1A provides a schematic diagram of the mutated gene that gave rise to a TNFα-resistant phenotype, and was later identified as a Nod1 mutant bearing a blasticidine (blast) gene insertion. The cell line bearing this Nod1 mutation is the MCF7-C20 cell line. The insertion from the pDisrup retroviral construct was mapped to the Nod1 gene. The junction of blasticidine fused with the Nod1 gene occurred at the 3′ end of the Nod1 gene between leucine-rich region 8 (LRR8) and leucine-rich region 9 (LRR9). […] Cell extracts from MCF-7 parental (called “wt”) and MCF-7 C20 cells were prepared and either immunoprecipitated with a monoclonal anti-NOD1 antibody (upper panel) or directly loaded onto an SDS-PAGE gel (lower panel), then transferred to PVDF membranes. Blots were analyzed by immunoblotting using the same monoclonal anti-NOD1 antibody. […] MCF-7 and MCF-7 C20 cells were treated with increasing concentrations of TNF (0-40 ng/ml) for 20 h. Cell viability was determined by propidium iodide (PI) exclusion assay and flow cytometry.
as §1

MCF-7 C20 cells = assay: Propidium iodide exclusion cell death assay, Nod1-deficient MCF-7 C20 cells; assay type: cell-based, human; conditions: C20 cells, charcoal-treated serum, γTriDAP/CHX
Description: as §1
To further investigate the role of Nod1 in apoptosis, a variety of cell types were incubated with the Nod1 ligand, […] (γTriDAP), which specifically activates Nod1. The cell types tested included the parental MCF-7 cell line, the Nod1-deficient MCF-7C20 clone, and a cell line engineered to contain an additional human Nod1 allele (MCF-7Nod1) so that Nod1 was over-expressed. […] Cells were treated with γTriDAP in the presence or absence of cycloheximide (CHX) and cell death was then determined by propidium iodide staining and flow cytometry.

[2] = test system: MCF-7 Blasto, MCF-7 C20, MCF-7 C20/Nod1 and MCF-7 RIP2ΔCARD cells; assay: Estrogen-induced proliferation (3H-thymidine) of MCF-7 cell lines; assay type: cell-based, human; conditions: for proliferative response to added estrogen: grown in the absence of estrogen
Description: (§3) FIG. 11A-D illustrate that the presence of Nod1 prevents tumor growth in SCID mice. FIG. 11A graphically illustrates the tumor volume in mice injected with MCF-7 C20 (left) and MCF-7 C20/Nod1 (right) cells as a function of time. The cells (3×10^6 cells/mouse) were injected into the flanks of female SCID mice. Tumor size was measured once a week and volume was determined according to the formula (PW2×L)/2. Each line represents tumor growth observed in one mouse (n=4). As illustrated, the tumor volume diminished in mice that received Nod1 expressing tumor cells (C20/Nod1). […] FIG. 11B graphically illustrates that implanting estrogen pellets into mice prior to injection of MCF-7 Blasto, MCF-7 C20 and MCF-7 C20/Nod1 cells (3×10^6 cells/mouse) increases tumor growth except when the tumor cells express Nod1 (the C20/Nod1 cells). […] The tumor volume was determined as described above. FIG. 11C graphically illustrates the tumor volume over time in mice injected with MCF-7 Blasto, MCF-7 C20 and MCF-7 RIP2ΔCARD cells. […] FIG. 11D graphically illustrates tumor cell growth as a function of estrogen concentration. […] MCF-7 Blasto, MCF-7 C20, MCF-7 C20/Nod1 and MCF-7 RIP2ΔCARD cells were exposed to increasing concentrations of 17β-estradiol, pulsed with ^3H-thimidine and cell growth was determined by liquid scintillation. Data are representative of at least 3 independent experiments.
Retroviral transfections. The various genes used in this study were cloned into pMSCV-Blasto, pBabe-Puro or pBabe-Neo retroviral vectors. MCF-7 cells were stably transfected using available procedures. Briefly, amphotropic 293 cells were transfected with retroviral vectors encoding selected Nod1, Nod2 and other proteins. Twenty-four hours post-transfection, cells were incubated at 32° C. overnight to produce viral particles. Target cells were infected the next day with virus-containing 293 cell supernatants containing recombinant retroviral particles. […] Cells were harvested on glass fiber filters and radioactivity measured by liquid scintillation. […]

[3] = test system: MCF-7 Blasto, MCF-7 C20 and MCF-7 C20/Nod1 tumors; assay: Xenograft tumor growth in SCID mice with estrogen pellets; assay type: in vivo
Description: as §3
Human xenografts in nude mice. MCF-7 Blasto, MCF-7 C20 and MCF-7 C20/Nod1 cells were trypsinized, washed once with PBS and resuspended to a concentration of 1.5×10^7/ml. Two hundred microliters of each suspension were inoculated subcutaneously into the flank of athymic SCID/SCID or SCID/Nod (non-obese diabetic) female mice. Tumor size was assessed once a week. Tumor volume was calculated.
In most studies, tumor formation by MCF-7 cells requires supplementation of estrogens for tumorigenesis in nude mice, even when cells are inoculated at high concentration. To further examine the role of estrogen in tumorigenesis, all three cell lines were injected into mice along with estrogen pellets (FIG. 11B). […]

MCF-7 C20/Nod1 cells = assay: Propidium iodide exclusion apoptosis assay, estrogen/tamoxifen studies; assay type: cell-based, human
Text: FIG. 12A-C illustrates that estrogen increases γTriDAP-induced apoptosis and tamoxifen inhibits γTriDAP-induced apoptosis in various MCF-7 tumor cell lines. FIG. 12A graphically illustrates the percent apoptosis in MCF-7 Blasto, MCF-7 C20 and MCF-7 C20/Nod1 cells cultured in increasing amounts or estrogen and either cycloheximide (CHX) or CHX plus γTriDAP (γTri). FIG. 12B graphically illustrates the percent apoptosis in MCF-7 Blasto, MCF-7 C20 and MCF-7 C20/Nod1 cells cultured in increasing amounts of tamoxifen and either cycloheximide (CHX) or CHX plus γTriDAP (γTri). For the estrogen studies, MCF-7 cells were cultured in charcoal-treated medium and stimulated with γTriDAP/CHX in the presence of increasing concentrations of estrogen (E2) and cell viability was measured by propidium iodide (PI) exclusion. For the tamoxifen studies, cells were treated with tamoxifen prior to addition of γTriDAP/CHX and cell viability measured by PI exclusion. […] Total protein extracts from MCF-7 Blasto, MCF-7 C20 and MCF-7 C20/Nod1 cells and from cells isolated from tumors were analyzed by immunoblotting using antibody against estrogen receptor (ERα), and ERK2 as loading control.
as §1
To determine whether the presence of estrogens modulates Nod1-induced apoptotic pathway, cells were cultured in medium containing charcoal-treated serum.

MCF-7 cells [4] = assay: Propidium iodide exclusion cell death assay, wild-type (parental/Blasto) MCF-7 cells; assay type: cell-based, human
Description: as §1, §2

MCF-7 cells [5] = assay: Apoptosis in the presence of TNFα (FIG. 8C); assay type: cell-based, human; conditions: with TNFα
Description: FIG. 8A-D illustrate that a synergistic relationship exists between NOD1 and TNFα. FIG. 8A graphically illustrates that the percentage of apoptotic cells increases in dose-specific manner as the concentration of NOD1 increases from 0.0 to 100 μg/ml and the concentration of TNFα increases from 0.5 ng/ml to 1 ng/ml. FIG. 8B graphically illustrates that the percentage of apoptotic cells increases in dose-specific manner as the concentration of cycloheximide increases from 0.0 to 3 μg/ml and the concentration of TNFα increases from 0.5 ng/ml to 1 ng/ml. […] FIG. 8D illustrates NOD1 expression at various time points after exposure of MCF-7 cells to TNFα.

[6] = test system: poly(ADP-ribose)polymerase (PARP) and capases 6, 7, 8 and 9; assay: Western blot of PARP and caspase cleavage in MCF-7 cells; assay type: cell-based, human; conditions: CHX 0.5 ug/ml, 24 h
Description: Cleavage of PARP and various caspases was detected by Western blot analysis of cell MCF-7 Blasto, MCF-7 C20 and MCF-7 Nod1 after stimulation with γTriDAP, αTriDAP or medium (control) in the presence or absence of CHX (0.5 ug/ml) for 24 h. Cells were harvested, subjected to western blotting and PARP, caspases, p20, p41/43 and p35 were detected with antibodies reactive thereof.
Western blot analysis and immunoprecipitation. Cells were washed extensively and lysed using lysis buffer containing 50 mM Hepes, 100 mM NaCl, 2 mM EDTA, 10% glycerol, 1% Nonidet P-40, 14 μM pepstatin A, 100 uM leupeptin, 3 mM benzamidine, 1 mM PMSF, 1 mM sodium pyrophosphate, 10 mM sodium orthovanadate, 100 U/ml aprotinin, and 100 mM sodium fluoride. After incubation for 30 min on ice, cell lysates were centrifuged (14000 rpm, 10 min, 4° C.) and the supernatants were recovered. For immunoprecipitation, cell lysates were mixed with 5 μg of antibody for 3 hour at 4° C. under constant agitation. Immune complexes were allowed to bind to 20 μl protein A-Sepharose beads overnight, beads were washed three times with lysis buffer. Immunoprecipitates were separated on SDS-PAGE and transferred to PVDF membranes.

SK-BR3 = assay: Apoptosis (PI staining), SK-BR3 cells; assay type: cell-based, human; conditions: plus TNFα and cycloheximide (FIG. 9B)
Description: as §1
To determine if Nod1-dependent apoptosis occurs in other human cell lines, a series of epithelial cell lines were examined where Nod1 was stably expressed to enhance sensitivity to activation of the Nod1 pathway. Cells were treated with TNFα (T) and γTriDAP (γ) in the presence or absence of CHX (C) and monitored for viability by PI staining as a measure of apoptosis (Table 1).

## COC(=O)CC(NC(=O)OC(C)(C)C)C(=O)CF [Boc-D-FMK]
MCF-7 Nod1 cells
  effect on γTriDAP-induced cell death: abrogated

## IETD
MCF-7 Nod1 cells
  effect on γTriDAP-induced apoptosis: marked inhibitory effects

## CC[C@@]1(O)C(=O)OCc2c1cc1n(c2=O)Cc2cc3ccccc3nc2-1 [camptothecin]
[1]
  sensitivity of MCF-7 C20 cells versus parental MCF-7 cells to induced cell death: equally sensitive

## COc1cccc2c1C(=O)c1c(O)c3c(c(O)c1C2=O)C[C@@](O)(C(=O)CO)C[C@@H]3O[C@H]1C[C@H](N)[C@H](O)[C@H](C)O1 [doxirubicin]
[1]
  sensitivity of MCF-7 C20 cells versus parental MCF-7 cells to induced cell death: equally sensitive

## 17β-estradiol [estrogen]
MCF-7 C20 cells
  effect upon apoptosis: little or no effect
[2]; MCF-C20 and MCF-7 RIP2ΔCARD cells
  proliferative response to added estrogen: strong proliferative response
[2]; parental and MCF-7 C20/Nod1 cells
  proliferative response to added estrogen: neither the parental nor MCF-7 C20/Nod1 cell lines were stimulated to proliferate
[3]; mice injected with MCF-7 Blasto cells, estrogen pellets
  tumor growth: tumors grew
[3]; mice injected with MCF-7 C20 cells, estrogen pellets
  tumor growth: grew even larger
[3]; mice that received MCF-7 C20/Nod1, estrogen pellets
  tumor growth: did not grow tumors
MCF-7 C20/Nod1 cells; C20/Nod1 and Blasto cells, charcoal-treated serum, increasing estrogen
  effect on γTriDAP-induced apoptosis: apoptosis increased in a dose-dependent manner

## CC/C(=C(\c1ccccc1)c1ccc(OCCN(C)C)cc1)c1ccccc1 [tamoxifen]
[2]; MCF-7 C20 cells (data not shown)
  effect on estrogen-induced proliferation: blocked
MCF-7 C20/Nod1 cells; MCF-7 cell lines treated prior to γTriDAP/CHX (FIG. 12B)
  effect on γTriDAP-induced cell death: partially blocked

## C[C@@H]1C[C@@H]([C@H](O)CC2CC(=O)NC(=O)C2)C(=O)[C@@H](C)C1 [cycloheximide]
MCF-7 cells [4]; wild type cells, agent alone
  cell death / apoptosis: No cell death

## αTriDAP: inactive control tri-peptide where mesoDAP was bound to Glu in the α position rather than in the γ position (Ala-Glu-[mesoDAP]; not fully specified)
MCF-7 cells [5]
  apoptosis in the presence of TNFα: may actually inhibit apoptosis
MCF-7 cells [4]; MCF-7 cells, in the presence of cycloheximide
  cell death: did not induce cell death
[6]
  proteolytic cleavage of PARP and capases 6, 7, 8 and 9: not
SK-BR3
  apoptosis of SKBR3 cells: reduced apoptosis

## z-VAD-FMK
MCF-7 Nod1 cells
  effect on γTriDAP-induced cell death: abrogated
  effect on γTriDAP-induced apoptosis: blocked γTriDAP-induced apoptosis nearly completely

## TNFα
[1]
  sensitivity of MCF-7 C20 cells versus parental MCF-7 cells to induced cell death: significantly more resistant
